Source: publication PMC9687812, “Discovery of Trace Amine-Associated Receptor 1 (TAAR1) Agonist 2-(5-(4′-Chloro-[1,1′-biphenyl]-4-yl)-4H-1,2,4-triazol-3-yl)ethan-1-amine (LK00764) for the Treatment of Psychotic Disorders” (Biomolecules, 2022)
Where two headings read alike, the source gives them in different places.

Columns and labels:
TAAR1 = target: T1, TAAR1 (Homo sapiens, UniProt Q96RJ0); test: BRET-based cellular cAMP (EPAC biosensor) assay of TAAR1 agonism in transfected HEK-293 cells; conditions: for Emax: HEK293, read-out: Emax: maximum observed activation of TAAR1 relative to that observed for 1 μM of β-PEA
T1 sequence (Q96RJ0 1-339): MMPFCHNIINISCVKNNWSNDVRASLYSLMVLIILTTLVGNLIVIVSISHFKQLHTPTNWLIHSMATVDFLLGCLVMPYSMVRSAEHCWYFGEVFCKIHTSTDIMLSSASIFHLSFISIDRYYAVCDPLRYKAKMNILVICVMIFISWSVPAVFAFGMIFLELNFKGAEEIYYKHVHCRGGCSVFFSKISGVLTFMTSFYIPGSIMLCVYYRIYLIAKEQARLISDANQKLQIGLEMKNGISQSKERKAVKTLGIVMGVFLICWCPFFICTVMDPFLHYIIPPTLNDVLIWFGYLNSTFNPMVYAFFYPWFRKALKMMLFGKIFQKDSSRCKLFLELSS

[1] = TAAR1 activation, BRET assay, HEK-293, mean from 3 assays
[2] = relative to 1 μM β-PEA, mean from 3 BRET assays, errors ±5–10%

SMILES | melting point [°C] | Emax (TAAR1) [%] | EC50 (TAAR1; [1]) | Emax: maximum observed activation of TAAR1 relative to that observed for 1 μM of β-PEA (TAAR1; [2]) | EC50 (TAAR1) [nM] | Emax: maximum observed activation of TAAR1 relative to that observed for 1 μM of β-PEA (TAAR1)
COc1cc(OC)cc(-c2nnc(CCN)[nH]2)c1.Cl [Compound 33, 2-(5-(3,5-Dimethoxyphenyl)-4H-1,2,4-triazol-3-yl)ethan-1-amine Hydrochloride] | 245 to 247 | 55 | > 1000 nM | – | – | –
Cl.NCCc1nnc(-c2ccncc2)[nH]1 [Compound 10, 2-(5-(Pyridin-4-yl)-4H-1,2,4-triazol-3-yl)ethan-1-amine Hydrochloride] | 257 to 258 | 47 | > 1000 nM | – | – | –
COc1ccc(-c2nnc(CCN)[nH]2)cc1OC.Cl [Compound 11, 2-(5-(3,4-Dimethoxyphenyl)-4H-1,2,4-triazol-3-yl)ethan-1-amine Hydrochloride] | 209 to 210 | – | inactive | inactive | – | –
COc1ccc(-c2ccc(-c3nnc(CCN)[nH]3)cc2)cc1OC.Cl [Compound 64, 2-(5-(3′,4′-Dimethoxy-(1,1′-biphenyl)-4-yl)-4H-1,2,4-triazol-3-yl)ethan-1-amine Hydrochloride] | 199 to 201 | 104 | – | – | 185 | –
Cc1cc(-c2nnc(CCN)[nH]2)ccc1Br.Cl [Compound 12, 2-(5-(4-Bromo-3-methylphenyl)-4H-1,2,4-triazol-3-yl)ethan-1-amine Hydrochloride] | 251 to 252 | 87 | – | – | 812 | –
COc1ccc(-c2ccc(-c3nnc(CCN)[nH]3)cc2)cc1.Cl [Compound 58, 2-(5-(4′-Methoxy-(1,1′-biphenyl)-4-yl)-4H-1,2,4-triazol-3-yl)ethan-1-amine Hydrochloride] | 300 to 301 | 97 | – | – | 6 | –
Cl.NCCc1nnc(-c2ccc(OCc3ccc(F)cc3)cc2)[nH]1 [Compound 45, 2-(5-(4-[(4-Fluorobenzyl)oxy]phenyl)-4H-1,2,4-triazol-3-yl)ethan-1-amine Hydrochloride] | 220 to 222 | 114 | – | – | 22 | –
Cc1cc(-c2nnc(CCN)[nH]2)ccc1OCc1cccc(F)c1.Cl [Compound 47, 2-(5-(4-[(3-Fluorobenzyl)oxy]-3-methylphenyl)-4H-1,2,4-triazol-3-yl)ethan-1-amine Hydrochloride] | 215 to 216 | 106 | – | – | 142 | –
Cl.NCCc1nnc(-c2ccc3ncccc3c2)[nH]1 [Compound 35, 2-(5-(Quinolin-6-yl)-4H-1,2,4-triazol-3-yl)ethan-1-amine Hydrochloride] | 265 to 267 | 41 | – | – | > 1000 | –
Cl.NCCc1nnc(-c2cccc(Br)c2)[nH]1 [Compound 20, 2-(5-(3-Bromophenyl)-4H-1,2,4-triazol-3-yl)ethan-1-amine Hydrochloride] | 239 to 241 | 124 | – | – | 218 | –
CCOc1cc(-c2nnc(CCN)[nH]2)cc(OCC)c1OCC.Cl [Compound 32, 2-(5-(3,4,5-Triethoxyphenyl)-4H-1,2,4-triazol-3-yl)ethan-1-amine Hydrochloride] | 253 to 255 | – | inactive | inactive | – | –
Cl.NCCc1nnc(-c2cccc([N+](=O)[O-])c2)[nH]1 [Compound 36, 2-(5-(3-Nitrophenyl)-4H-1,2,4-triazol-3-yl)ethan-1-amine Hydrochloride] | 214 to 216 | 110 | – | – | 440 | –
Cl.NCCc1nnc(-c2cccc(I)c2)[nH]1 [Compound 41, 2-(5-(3-Iodophenyl)-4H-1,2,4-triazol-3-yl)ethan-1-amine Hydrochloride] | 224 to 225 | 80 | – | – | 890 | –
Cl.NCCc1nnc(-c2cnccn2)[nH]1 [Compound 38, 2-(5-(Pyrazin-2-yl)-4H-1,2,4-triazol-3-yl)ethan-1-amine Hydrochloride] | 184 to 186 | – | inactive | inactive | – | –
CN(C)c1ccc(-c2nnc(CCN)[nH]2)cc1 [Compound 30, 4-(5-(2-Aminoethyl)-4H-1,2,4-triazol-3-yl)-N,N-dimethylaniline] | 244 to 246 | – | 730 nM | – | – | 122
Cl.NCCc1nnc(-c2ccc(Cl)cc2)[nH]1 [Compound 28, 2-(5-(4-Chlorophenyl)-4H-1,2,4-triazol-3-yl)ethan-1-amine Hydrochloride] | 239 to 241 | 107 | – | – | 522 | –
Cl.NCCc1nnc(-c2cccs2)[nH]1 [Compound 16, 2-(5-(Thiophen-2-yl)-4H-1,2,4-triazol-3-yl)ethan-1-amine Hydrochloride] | 248 to 250 | 138 | – | – | > 1000 | –
Cl.NCCc1nnc(-c2cccc(Oc3ccccc3Cl)c2)[nH]1 [Compound 53, 2-(5-(3-[2-Chlorophenoxy]phenyl)-4H-1,2,4-triazol-3-yl)ethan-1-amine Hydrochloride] | 202 to 210 | 71 | – | – | 847 | –
Cc1ccccc1-c1nnc(CCN)[nH]1.Cl [Compound 23, 2-(5-(2-Methylphenyl)-4H-1,2,4-triazol-3-yl)ethan-1-amine Hydrochloride] | 235 to 236 | 116 | – | – | 468 | –
Cc1cc(-c2nnc(CCN)[nH]2)ccc1I.Cl [Compound 42, 2-(5-(4-Iodo-3-methylphenyl)-4H-1,2,4-triazol-3-yl)ethan-1-amine Hydrochloride] | 225 to 227 | 76 | – | – | > 1000 | –
Cl.NCCc1nnc(-c2ccccc2OC(F)(F)F)[nH]1 [Compound 39, 2-(5-(2-[Trifluoromethoxy]phenyl)-4H-1,2,4-triazol-3-yl)ethan-1-amine Hydrochloride] | 208 to 211 | – | inactive | inactive | – | –
Cl.NCCc1nnc(-c2ccc([N+](=O)[O-])cc2)[nH]1 [Compound 14, 2-(5-(4-Nitrophenyl)-4H-1,2,4-triazol-3-yl)ethan-1-amine Hydrochloride] | 239 to 240 | – | inactive | inactive | – | –
COc1cccc(-c2nnc(CCN)[nH]2)c1.Cl [Compound 7, 2-(5-(3-Methoxyphenyl)-4H-1,2,4-triazol-3-yl)ethan-1-amine Hydrochloride] | 235 to 236 | 132 | – | – | 910 | –
Cl.NCCc1nnc(-c2ccc(-c3ccc(OC(F)(F)F)cc3)cc2)[nH]1 [Compound 59, 2-(5-(4′-Trifluoromethoxy-(1,1′-biphenyl)-4-yl)-4H-1,2,4-triazol-3-yl)ethan-1-amine Hydrochloride] | 299 to 300 | 95 | – | – | 13 | –
Cl.NCCc1nnc(-c2ccc(-c3cccc(F)c3)cc2)[nH]1 [Compound 60, 2-(5-(3′-Fluoro-(1,1′-biphenyl)-4-yl)-4H-1,2,4-triazol-3-yl)ethan-1-amine Hydrochloride] | 260 to 262 | 95 | – | – | 26 | –
Cl.NCCc1nnc(-c2cc(Cl)cc(Cl)c2)[nH]1 [Compound 21, 2-(5-(3,5-Dichlorophenyl)-4H-1,2,4-triazol-3-yl)ethan-1-amine Hydrochloride] | 222 to 224 | 112 | – | – | 23 | –
Cc1cc(-c2nnc(CCN)[nH]2)ccc1OCc1ccc(F)cc1.Cl [Compound 48, 2-(5-(4-[(4-Fluorobenzyl)oxy]-3-methylphenyl)-4H-1,2,4-triazol-3-yl)ethan-1-amine Hydrochloride] | 182 to 183 | 98 | – | – | 163 | –
Cl.NCCc1nnc(-c2ccccc2Br)[nH]1 [Compound 29, 2-(5-(2-Bromophenyl)-4H-1,2,4-triazol-3-yl)ethan-1-amine Hydrochloride] | 194 to 196 | 111 | – | – | 696 | –
Cl.NCCc1nnc(-c2ccccc2)[nH]1 [Compound 22, 2-(5-Phenyl-4H-1,2,4-triazol-3-yl)ethan-1-amine Hydrochloride] | 250 to 252 | 118 | – | – | 283 | –
